Values quoted from earlier work in patent publication US20150320893A1, “TREATMENT OF LATENT HIV INFECTION” (priority 2012, published 2015).

Test system: latent virus in harboring cells
Settings: by manipulating the PKC pathway(s) within the cell

Compound | ability to induce latent viral replication
CC(=O)O[C@@]12C[C@@H](C)[C@@]3(O)[C@@H](C=C(CO)C[C@]4(O)C(=O)C(C)=C[C@@H]34)[C@@H]1C2(C)C [Prostratin] | induce latent viral replication without encouraging cell cycle progression
CCC/C=C/C=C/C(=O)O[C@H]1/C(=C/C(=O)OC)C[C@H]2C[C@H]([C@@H](C)O)OC(=O)C[C@H](O)C[C@@H]3C[C@H](OC(C)=O)C(C)(C)[C@](O)(C[C@@H]4C/C(=C/C(=O)OC)C[C@H](/C=C/C(C)(C)[C@]1(O)O2)O4)O3 [bryostatin-1, bryostatin 1] | induce latent viral replication without encouraging cell cycle progression
